Assay results from publication PMC9343080, “Distribution- and Metabolism-Based Drug Discovery: A Potassium-Competitive Acid Blocker as a Proof of Concept” (Research, 2022).
Where two headings read alike, the source gives them in different places.

Assays:
[1] = test system: histamine-stimulated gastric acid secretion; experiment: In vivo inhibition of histamine-stimulated acid secretion in anesthetized rats; set-up: species or system rat; settings: for Total acid output, histamine-stimulated model / Inhibition (%), histamine-stimulated model: rats
Method: 60 SPF SD rats weighing 180-220 g were randomly divided into […]: sham, model, SH-337 (2 mg/kg and 4 mg/kg), vonoprazan (2 mg/kg), males and females are equally divided. Fasting for 24 hours, model and sham groups were treated with deionized water. Drugs and vehicle were given through intragastric administration to rats before anesthesia. 1 h after administration, pylorus was ligated. 5 min later, histamine 2HCl (30 mg/10 mL/kg) was injected subcutaneously. At 3 h after histamine administration, the rats were killed by CO2 asphyxiation. The gastric contents were collected in a 10 mL centrifuge tube after removing their stomachs. Centrifuge at 3000 g for 10 min, and then, determine the total acid output during a 3 h period by 0.1 M NaOH [52, 53]. %Inhibition = (average of modelacid–drugacid)/average of modelacid × 100%.

[2] = Metabolite identification and profiling in rat hepatocytes; assay type: in vitro ADME; settings: SH-337, rat hepatocytes, 60 min incubation
Method: SH-337 was incubated with rat or human hepatocytes at a concentration of 1.0 × 10^6 cells/mL for 60 min or 120 min (rat 60 min, human 120 min) at 37°C in a CO2 incubator. The samples were precipitated with acetonitrile at 1 : 2 and further centrifuged; the supernatants were dried with a stream of N2 gas. The residues were reconstituted with 300 μL of 10% acetonitrile/H2O (0.1% TFA) and analyzed by LC-MS/MS. The assays were pursued under the conditions provided in Supplementary Tables S5–S8.

[3] = Tissue distribution of SH-337 in rats (LC-MS/MS); assay type: in vivo, rat; settings: for concentration at 15 min / concentration at 1 h / concentration at 2 h / concentration at 4 h / concentration at 24 h: po, 4 mg/kg
Method: 15 SPF male SD rats were randomly divided into 5 groups, three per group. Fasting was for 4 hours. Plasma, heart, liver, and stomach were obtained 0.25, 1, 2, 4, and 24 hours after oral administration of SH-337 (0.4 mg/mL in water) at a dose of 4 mg/kg. At designated time points, rats were anesthetized with ether, and the blood samples were collected via the abdominal aorta. The blood was immediately cooled under ice-chilled conditions and centrifuged at approximately 1500 × g at 4°C for 10 minutes to obtain the plasma. For plasma: 20 μL Std samples in duplicate, QC samples in duplicate, and rat plasma samples were mixed with 60 μL ACN containing IS (200 ng/mL of tolbutamide, 50 ng/mL of propranolol, and 500 ng/mL of Dic) in EP tubes. After the mixture was vortexed for 1 min and then centrifuged for 10 min (13000 rpm, 4°C), transfer 50 μL supernatant to a 96-well plate with 150 μL pure water, shake for 10 min, and finally analyze by LC-MS/MS. For heart and liver: tissue samples were added with 3-folds (w/v) saline in terms of the weight of samples and then homogenated. 20 μL Std samples in duplicate, QC samples in duplicate, and rat heart and liver samples were mixed with 60 μL ACN containing IS (200 ng/mL of tolbutamide, 50 ng/mL of propranolol, and 500 ng/mL of Dic) in EP tubes. After the mixture was vortexed for 1 min and then centrifuged for 10 min (13000 rpm, 4°C), transfer 50 μL supernatant to a 96-well plate with 150 μL pure water, shake for 10 min, and finally analyze by LC-MS/MS. For stomach: tissue samples were added with 3-folds (w/v) saline in terms of the weight of samples and then homogenated. 20 μL Std samples in duplicate, QC samples in duplicate, and rat stomach samples were mixed with 60 μL ACN containing IS (200 ng/mL of tolbutamide, 50 ng/mL of propranolol, and 500 ng/mL of Dic) in EP tubes. After the mixture was vortexed for 1 min and then centrifuged for 10 min (13000 rpm, 4°C), transfer 50 μL supernatant to a 96-well plate with 150 μL pure water, shake for 10 min, and finally analyze by LC-MS/MS.

[4] = Acute (single-dose) toxicity test; assay type: in vivo; settings: SD rats, single dose of 1000 mg/kg, i.g.
Method: For acute toxicity test: 12 SPF SD rats were randomly divided into three groups and received a single dose of SH-337 (1000 mg/kg, i.g.), and the animal tolerance was recorded within 2 hours. For two-week repeat-dose toxicity test: 20 SPF SD rats were randomly divided into two groups and received SH-337 (100, 200 mg/kg, i.g.) once daily for 14 days. SH-337 was dissolved in 0.5% CMC-Na. The body weight of the rats was recorded every 7 days. During the experiment, clinical parameters included apparent changes in the mental state, skin or fur, behavior, genitals, mucous membranes, respiration, stool consistency, glandular organ secretions, mortality, or other toxic results that were recorded. In addition, animal bodyweight and food intake were assessed once weekly over the study period. At the end of the experiment, the rats were sacrificed, and the serum hematological parameters and serum biochemistry parameters were recorded.

[5] = Metabolite identification and profiling in human liver microsomes; assay type: in vitro ADME; settings: SH-337 10 µM, 60 min incubation
Method: Liver microsomes (1 mg protein/mL) were suspended in phosphate buffer (50 mM, pH 7.4) containing MgCl2 (6 mM). […] The reactions were initiated at 37°C by the addition of 1 mM NADPH and terminated at 30 min or 60 min (30 min for rat; 60 min for human). The samples were precipitated with acetonitrile at 1 : 2 and further centrifuged; the supernatants were dried with a stream of N2 gas. The residues were reconstituted with 300 μL of 10% acetonitrile/H2O (0.1% TFA) and analyzed by LC-MS/MS. The assays were pursued under the conditions provided in Supplementary Tables S4, S6, S7, and S8.

[6] = rats, single oral 4 mg/kg SH-337
[7] = stomach-liver distribution ratio, rats, oral 4 mg/kg

CNCc1cc(-c2ccc(OCC3CC3)cc2F)n(S(=O)(=O)c2cccnc2)c1.Cl.Cl [SH-337, 1-(5-(4-(cyclopropylmethoxy)-2-fluorophenyl)-1-(pyridin-3-ylsulfonyl)-1H-pyrrol-3-yl)-N-methylmethanamine dihydrochloride]
In vivo efficacy (% inhibition) ([1]; histamine-induced acid secretion in rats, 2 mg/kg, i.g. (Table 2)): 83%
Total acid output, histamine-stimulated model ([1]; i.g. 2 mg/kg): 0.31 ± 0.39^∗∗ 10^−4 mol
Inhibition (%), histamine-stimulated model ([1]; i.g. 2 mg/kg (Table 6)): 80%
Inhibition (%), histamine-stimulated model ([1]; i.g. 4 mg/kg): 93%
Total acid output, histamine-stimulated model ([1]; i.g. 4 mg/kg): 0.14 ± 0.48^∗∗ 10^−4 mol
Relative peak area, RHeps [2]: 28.2%
C Stomach/CLiver (stomach-liver distribution ratio) ([3]; AUC, rats, i.g. 4 mg/kg SH-337): 7.1
concentration at 15 min ([3]; male, SD, rat, liver, rats, single oral 4 mg/kg SH-337, read-out: Concentration, Liver, 15 min): 5240 ng/mL
concentration at 1 h ([3]; male, SD, rat, liver, rats, single oral 4 mg/kg SH-337, read-out: Concentration, Liver, 1 h): 846 ng/mL
concentration at 2 h ([3]; male, SD, rat, liver, rats, single oral 4 mg/kg SH-337, read-out: Concentration, Liver, 2 h): 262 ng/mL
concentration at 4 h ([3]; male, SD, rat, liver, rats, single oral 4 mg/kg SH-337, read-out: Concentration, Liver, 4 h): 145 ng/mL
concentration at 24 h ([3]; male, SD, rat, liver, rats, single oral 4 mg/kg SH-337, read-out: Concentration, Liver, 24 h): 1.3 ng/mL
concentration at 1 h ([3]; male, SD, rat, plasma, rats, 1 h after oral administration of 4.0 mg/kg (Table 2), read-out: Drug concentration, Plasma): 7.1 ng/mL
concentration at 15 min ([3]; male, SD, rat, plasma, rats, single oral 4 mg/kg SH-337, read-out: Concentration, Plasma, 15 min): 9.4 ng/mL
concentration at 1 h ([3]; male, SD, rat, plasma, rats, single oral 4 mg/kg SH-337, read-out: Concentration, Plasma, 1 h): 15.5 ng/mL
concentration at 2 h ([3]; male, SD, rat, plasma, rats, single oral 4 mg/kg SH-337, read-out: Concentration, Plasma, 2 h): 5.1 ng/mL
concentration at 4 h ([3]; male, SD, rat, plasma, rats, single oral 4 mg/kg SH-337, read-out: Concentration, Plasma, 4 h): 6.7 ng/mL
AUC(0-t) ([3]; male, SD, rat, plasma, rats, single oral 4 mg/kg SH-337, read-out: AUC-last, Plasma): 32.6 ng·h/mL
Kp ([3]; male, SD, rat, stomach / plasma, oral, AUC, rats, i.g. 4 mg/kg SH-337, read-out: C Stomach/CPlasma (stomach-plasma distribution ratio)): 1360
concentration at 1 h ([3]; male, SD, rat, stomach, rats, 1 h after oral administration of 4.0 mg/kg (Table 2), read-out: Drug concentration, Stomach): 6690 ng/mL
concentration at 15 min ([3]; male, SD, rat, stomach, rats, single oral 4 mg/kg SH-337, read-out: Concentration, Stomach, 15 min): 9820 ng/mL
concentration at 1 h ([3]; male, SD, rat, stomach, rats, single oral 4 mg/kg SH-337, read-out: Concentration, Stomach, 1 h): 3340 ng/mL
concentration at 2 h ([3]; male, SD, rat, stomach, rats, single oral 4 mg/kg SH-337, read-out: Concentration, Stomach, 2 h): 3030 ng/mL
concentration at 4 h ([3]; male, SD, rat, stomach, rats, single oral 4 mg/kg SH-337, read-out: Concentration, Stomach, 4 h): 2810 ng/mL
concentration at 24 h ([3]; male, SD, rat, stomach, rats, single oral 4 mg/kg SH-337, read-out: Concentration, Stomach, 24 h): 136 ng/mL
Kp at 1 h ([3]; male, SD, rat, ratio of stomach to plasma distribution 1 h after oral administration of 4.0 mg/kg, read-out: C Stomach/CPlasma): 943
AUC0–24, Liver ([3]; rats, i.g. 4 mg/kg SH-337): 6155.6 ng equiv. h/mL or g
AUC0–24, Plasma ([3]; rats, i.g. 4 mg/kg SH-337): 32.6 ng equiv. h/mL or g
AUC0–24, Stomach ([3]; rats, i.g. 4 mg/kg SH-337): 44240.4 ng equiv. h/mL or g
retention in the stomach ([3]; rats, oral 4 mg/kg): more than 24 h
AUC-last, Liver [3, 6]: 6155.6 ng·h/g
AUC-last, Stomach [3, 6]: 44240.4 ng·h/g
Concentration, Plasma, 24 h ([3]; rats, single oral 4 mg/kg SH-337, BLQ: below limit of quantification): BLQ
CStomach/CLiver, 15 min [3, 7]: 1.9
CStomach/CLiver, 1 h [3, 7]: 3.95
CStomach/CLiver, 2 h [3, 7]: 11.6
CStomach/CLiver, 4 h [3, 7]: 19.4
CStomach/CLiver, 24 h [3, 7]: 104.9
animal death [4]: no animal death was observed
single-dose toxicity (tolerance) [4]: well tolerated
Relative peak area, HLMs [5]: 68.9%
